Data on 13 compounds can be found in patent US20130252930A1 (BIOMARIN PHARMACEUTICAL INC., priority 2010, published 2013).

Molecules are shown by their SMILES. pIC50: −log10 of the molar value. Read-outs that look alike come from different tables or passages of the source.

Series [1] addresses T1, CYP17 (human testicular microsome) (Homo sapiens, UniProt P05093).
T1 construct: using microsomal fraction from human testis (Celsis Cat #S00110) as the enzyme source; tissue Celsis S00110; host or cells: human testis microsomal fraction
T1 sequence (P05093 1-508): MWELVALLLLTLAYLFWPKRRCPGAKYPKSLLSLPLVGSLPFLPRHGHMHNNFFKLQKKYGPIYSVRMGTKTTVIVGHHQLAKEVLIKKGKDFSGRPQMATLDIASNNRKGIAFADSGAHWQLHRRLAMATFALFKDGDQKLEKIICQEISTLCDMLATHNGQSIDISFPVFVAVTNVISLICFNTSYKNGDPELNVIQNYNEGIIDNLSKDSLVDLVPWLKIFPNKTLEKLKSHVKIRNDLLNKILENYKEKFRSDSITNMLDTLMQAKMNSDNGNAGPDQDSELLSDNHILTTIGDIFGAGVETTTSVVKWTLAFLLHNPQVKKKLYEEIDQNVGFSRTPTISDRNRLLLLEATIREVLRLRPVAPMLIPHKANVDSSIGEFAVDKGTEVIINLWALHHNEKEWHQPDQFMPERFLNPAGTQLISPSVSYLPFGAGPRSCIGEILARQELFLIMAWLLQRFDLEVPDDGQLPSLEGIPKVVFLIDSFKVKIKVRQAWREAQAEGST
Put plainly: CYP17 enzymatic assay (% inhibition at 10 nM), version 1 (Biological Example 5). Type of series: biochemical. To be noted: 10 nM compound, DHEA by ELISA, read-out: Biological Example No. 5: CYP17 percent inhibition at 10 nM (version 1). For orientation: An ELISA detects its analyte on a solid surface through an enzyme-linked reagent.
Description: The assays were performed in 96-well plates. Typical assays were carried out in total 100 μL volume that included test compounds at 10 nM concentration, 1× reaction buffer, 0.5 mM NADPH, 1 μM 17α-hydroxypregnenolone, and 2.5 μL of diluted human testicular microsome (Celsis. Cat #S00110). Reaction without test compound served as positive control. Reactions were allowed to incubate at 37° C. for 90 minutes with gentle shaking. The reaction was stopped by directly applying the enzymatic reaction mixture to ELISA plate for evaluation of DHEA concentration according to manufacturer's protocol (IBL America). A standard curve (OD450 vs. DHEA concentration) was generated using purified DHEA. […] Percent inhibition (inhibition %) of the compound was calculated using normalized DHEA concentration based on following formula: 100-([DHEA] of compound/[DHEA] of positive control *100).

Series [2] addresses T2, Cyp21 enzyme (Human HEK 293-Cyp21 stable transfected cells) (Homo sapiens, UniProt P08686).
T2 construct: expressed in transfected cells
T2 sequence (P08686 1-495): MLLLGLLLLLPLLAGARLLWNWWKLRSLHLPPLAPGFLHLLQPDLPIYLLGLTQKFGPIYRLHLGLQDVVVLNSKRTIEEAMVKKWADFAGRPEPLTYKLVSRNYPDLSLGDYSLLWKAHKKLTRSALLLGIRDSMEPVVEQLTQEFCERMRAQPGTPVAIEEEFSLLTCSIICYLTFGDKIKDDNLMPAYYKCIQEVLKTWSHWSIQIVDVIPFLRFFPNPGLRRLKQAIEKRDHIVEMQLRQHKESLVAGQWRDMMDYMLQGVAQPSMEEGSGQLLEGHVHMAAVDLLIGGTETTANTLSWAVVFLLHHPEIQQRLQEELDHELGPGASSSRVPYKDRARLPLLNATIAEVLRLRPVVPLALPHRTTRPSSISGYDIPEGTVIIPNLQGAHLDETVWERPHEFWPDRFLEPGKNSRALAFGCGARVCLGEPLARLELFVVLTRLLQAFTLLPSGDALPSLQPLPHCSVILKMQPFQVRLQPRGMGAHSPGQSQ
Put plainly: CYP21-HEK293 enzymatic assay (% inhibition at 100 nM) (Biological Example 10). The note with it: 100 nM compound, HEK 293-Cyp21 cells; read-out: Biological Example No. 10: CYP21-HEK293 percent inhibition at 100 nM. In kind it is cell-based. The method in brief: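 Percent inhibition at 100 nM: DOC in conditioned medium was read by ELISA at 450 nm and quantified from a standard curve. Stably transfected human Cyp21 HEK293 cells were pretreated 5 h with compound or 1% methanol mock, then given 10 μM final progesterone for 20 h at 37 °C.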

The target in series [3] is T1, CYP17 (human testicular microsome). Put plainly: CYP17 enzymatic assay (IC50) (Biological Example 4). Type of series: biochemical.
Series [4] in a line: Rat liver microsome stability assay (Biological Example 8a). The note with it: liver microsomes, pH 7.4. For orientation: Liver microsomes are vesicles of endoplasmic reticulum, rich in cytochrome P450 enzymes.
Series [5] is described as follows: Human liver microsome stability assay (Biological Example 8b). The note with it: liver microsomes, pH 7.4.
Description: (§1) The reaction was started with addition of excess NADPH (5 mg/mL, 15 μL in 0.1 M potassium phosphate buffer, 1.0 mM EDTA, pH 7.4), the total volume is 45 μL (compound final concentration was 1 μM). […] 50 μL of the supernatant was transferred from each well into a 96-well sample plate containing 50 μL of ultra-pure water (Millipore) for LC-MS/MS analysis.
Series [6] relates to rat Cyp11B enzyme (rat adrenal mitochondria). The experiment in a line: CYP11B enzymatic assay (% inhibition at 100 nM) (Biological Example 9). Type of series: biochemical. The note with it: 100 nM compound, cortisol by ELISA. The method in brief: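 Sprague Dawley rat adrenal mitochondria were incubated with compound at 100 nM, 0.5 mM NADPH and 0.1 μM 11-deoxycortisol (pH 7.4 Tris buffer) for 60 min at 37 °C. Cortisol was measured by ELISA and corrected by subtracting the no-NADPH background. % inhibition is relative to the no-compound reaction.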

In a further series the target is T3, CYP17 (H295R cells) (Homo sapiens, UniProt P05093).
T3 construct: endogenous in cells; host or cells: H295R cells
T3 sequence (P05093 1-508): T1 sequence (P05093 1-508)
The experiment in a line: CYP17 cellular assay (IC50), testosterone in H295R cells (Biological Example 7). In kind it is cell-based. The method in brief:
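Testosterone in the medium was quantified by ELISA after 24 h at 37 °C with test compound (final 100, 10, 1, 0.1 nM; serum-free DMEM/F-12, ITS+, 0.1% methanol). The H295R cells had been seeded and grown 24 h beforehand; vehicle wells served as control.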

Series [7] addresses T1, CYP17 (human testicular microsome). Put plainly: CYP17 enzymatic assay (% inhibition at 1 nM) (Biological Example 12). In kind it is biochemical. The note with it: compound at 1 nM, read-out: CYP17 enzymatic assay % inhibition at 1 nM (Biological Example No. 12).
A short description of the next series: in vitro. To be noted: human, microsomes, pH 7.4.
Where [8] appears, read: human testicular microsome, DHEA by ELISA, read-out: Biological Example No. 4: CYP17 enzymatic assay IC50.
Where [9] appears, read: H295R cells, testosterone by ELISA, 24 hours, read-out: Biological Example No. 7: CYP17 cellular assay IC50.

As a reminder, the inhibition is the relative decrease from the control value, in per cent. For orientation: pIC50 means −log10 of the IC50, conventionally taken in molar units. One may read the half-life as how long it takes for the measured level to halve.

Description for in vitro: as §1

Turning to `Cc1cncc(C2=CC[C@H]3[C@@H]4CCC5=CC(=O)NCC[C@]5(C)[C@H]4CC[C@]23C)c1` [Compound 51], the inhibition at 0.01 µM in series [1] lay within 50 to 80%. Moreover, the inhibition at 0.1 µM in series [2] is not below 30%. Also, the pIC50 in [3] (setting [8]) was more than 7.96. This compound also had a half-life at 1 μM in [4] of 10 to 60 min.

With `C[C@]12CCNC(=O)C=C1CC[C@@H]1[C@@H]2CC[C@]2(C)C(n3ccnn3)=CC[C@@H]12` [Compound 59], the inhibition at 0.01 µM in series [1] is more than 80%. Further, the inhibition at 0.1 µM in series [2] is less than 30%. For the same compound, the results for the half-life at 1 μM in series [5] and in [4] were more than 50 min and 1 to 10 min, respectively. Moreover, the “Biological Example No. 9: CYP11B percent inhibition at 100 nM” value in series [6] is recorded as “na (“na” means the compound was not active under the conditions tested)”.

Consider `C[C@]12CCNC(=O)C=C1CC[C@@H]1[C@@H]2CC[C@]2(C)C(c3cncnc3)=CC[C@@H]12` [Compound 60, (5aR,7aS)-5a,7a-dimethyl-8-(pyrimidin-5-yl)-4,5,5a,5b,6,7,7a,10,10a,10b,11,12-dodecahydrocyclopenta[5,6]naphtho[2,1-c]azepin-3(2H)-one], for which, in series [1], the inhibition at 0.01 µM fell in the range of 50 to 80%. Besides, the inhibition at 0.1 µM in series [2] is not below 30%. For the same compound, the half-life at 1 μM in series [4] lay within 1 to 10 min.

With `C[C@]12CCNC(=O)C=C1CC[C@@H]1[C@@H]2CC[C@]2(C)C(c3cnccn3)=CC[C@@H]12` [Compound 61, (5aR,7aS)-5a,7a-dimethyl-8-(pyrazin-2-yl)-4,5,5a,5b,6,7,7a,10,10a,10b,11,12-dodecahydrocyclopenta[5,6]naphtho[2,1-c]azepin-3(2H)-one], the inhibition at 0.01 µM in series [1] is more than 80%. The inhibition at 0.1 µM in [2] is not below 30%. Also, the half-life at 1 μM in [4] is 1 to 10 min.

Take `C[C@]12CC[C@H]3[C@@H](CCC4=CC(=O)CC[C@@]43C)C1=CC=C2n1ccnc1` [Compound 75, (10R,13S)-17-(1H-imidazol-1-yl)-10,13-dimethyl-6,7,8,9,10,11,12,13-octahydro-1H-cyclopenta[a]phenanthren-3(2H)-one]: the inhibition at 0.01 µM in series [1] was more than 80%. The inhibition at 0.1 µM in series [2] is less than 30%. In addition, the half-life at 1 μM in series [5] is more than 50 min; in series [4], 10 to 60 min. Further, the negative-log IC50 (pIC50) in series [3] (setting [8]) was more than 7.96. Besides, in [6], the “Biological Example No. 9: CYP11B percent inhibition at 100 nM” value is listed as “U (U means the compound had a percent inhibition of greater than or equal to 32%)”.

Regarding `C[C@]12CC(=O)C[C@@H]1CC[C@@H]1[C@@H]2CC[C@]2(C)C(n3ccnc3)=CC[C@@H]12` [Compound 108, (3aS,3bS,5aS,8aS,8bR,10aS)-6-(1H-imidazol-1-yl)-3a,5a-dimethyl-3,3a,3b,4,5,5a,8,8a,8b,9,10,10a-dodecahydrodicyclopenta[a,f]naphthalen-2(1H)-one], in [1], the inhibition at 0.01 µM was more than 80%. Further, the half-life at 1 μM in series [5] was more than 50 min; in series [4], 1 to 10 min. Moreover, in [3] (setting [8]), the pIC50 was more than 7.96.

With `C[C@]12CCNC(=O)C[C@@H]1CC[C@@H]1[C@@H]2CC[C@]2(C)C(n3ccnn3)=CC[C@@H]12` [Compound 137], the inhibition at 0.01 µM in series [1] is more than 80%. The half-life at 1 μM in [5] is more than 50 min; in [4], 10 to 60 min. Also, the pIC50 on CYP17 (H295R cells) (setting [9]) is more than 7.82; in [3] (setting [8]), more than 7.96.

Consider `CN1CC[C@@]2(C)C(=CC1=O)CC[C@@H]1[C@@H]2CC[C@]2(C)C(n3ccnc3)=CC[C@@H]12` [Compound 146], for which, in series [1], the inhibition at 0.01 µM was more than 80%. Moreover, the inhibition at 0.1 µM in series [2] was less than 30%. For the same compound, the half-life at 1 μM in [5] is 1 to 50 min; in [4] it was 10 to 60 min. The pIC50 in series [3] (setting [8]) is more than 7.96. In [6], the “Biological Example No. 9: CYP11B percent inhibition at 100 nM” value was “U (U means the compound had a percent inhibition of greater than or equal to 32%)”.

`C[C@]12CC[C@H]3[C@@H](CC[C@H]4CC(=O)NCC[C@@]43C)C1=CC=C2c1cccnc1` [Compound 165, (5aS,5bS,7aS,10bR,12aS)-5a,7a-dimethyl-8-(pyridin-3-yl)-3,4,5,5a,5b,6,7,7a,10b,11,12,12a-dodecahydrocyclopenta[5,6]naphtho[1,2-d]azepin-2(1H)-one]: in series [1], the inhibition at 0.01 µM is more than 80%. Moreover, the inhibition at 0.1 µM in series [2] is less than 30%. For the same compound, the results for the half-life at 1 μM in series [5] and in [4] were 1 to 50 min and 1 to 10 min, respectively. The negative-log IC50 (pIC50) in series [3] (setting [8]) was more than 7.96. In addition, the “Biological Example No. 9: CYP11B percent inhibition at 100 nM” value in [6] is “na (“na” means the compound was not active under the conditions tested)”.

On to `C[C@]12CC[C@H]3[C@@H](CC[C@H]4C[C@@H](O)CC[C@@]43C)C1=CC=C2n1ccnc1` [Compound 170, (5S,8R,9S,10S,13S)-17-(1H-imidazol-1-yl)-10,13-dimethyl-2,3,4,5,6,7,8,9,10,11,12,13-dodecahydro-1H-cyclopenta[a]phenanthren-3-ol], for which the inhibition at 0.01 µM in series [1] was more than 80%. Further, the half-life at 1 μM was more than 50 min in [5] and 10 to 60 min in [4]. For the same compound, the pIC50 was more than 7.82 on CYP17 (H295R cells) (setting [9]) and more than 7.96 in series [3].

`C[C@]12CC[C@H]3[C@@H](CC[C@H]4C[C@@H](O)CC[C@@]43C)C1=CC=C2n1ccnn1` [Compound 176, (3S,8R,9S,10S,13S)-10,13-dimethyl-17-(1H-1,2,3-triazol-1-yl)-2,3,4,5,6,7,8,9,10,11,12,13-dodecahydro-1H-cyclopenta[a]phenanthren-3-ol]: the pIC50 was less than 7.00 against CYP17 (H295R cells) and less than 7.60 in [3]. In series [4], this compound yielded a half-life at 1 μM of 1 to 10 min.

With `COC(=O)N[C@@H]1CC[C@@]2(C)C(CCC3C2CC[C@]2(C)C(c4cccnc4)=CCC32)C1` (stereo partly drawn) [Compound 219, methyl ((3R,10S,13S)-10,13-dimethyl-17-(pyridin-3-yl)-2,3,4,5,6,7,8,9,10,11,12,13,14,15-tetradecahydro-1H-cyclopenta[a]phenanthren-3-yl)carbamate], the inhibition at 0.001 µM in series [7] was more than 50%. The half-life at 1 μM in the series “in vitro” is 1 to 50 min.

`COc1cncc(C2=CCC3C4CCC5C[C@H](NC(C)=O)CC[C@]5(C)C4CC[C@]23C)c1` (stereo partly drawn) [Compound 222, N-((3R,10S,13S)-17-(5-methoxypyridin-3-yl)-10,13-dimethyl-2,3,4,5,6,7,8,9,10,11,12,13,14,15-tetradecahydro-1H-cyclopenta[a]phenanthren-3-yl)acetamide]: in series [7], the inhibition at 0.001 µM is more than 50%. In “in vitro”, this compound yielded a half-life at 1 μM of 1 to 50 min.
